The values that follow come from patent US20230145200A1, “COMPOSITIONS AND METHODS OF TREATING CANCER” (Tillead Therapeutics, Inc., priority 2020, published 2023).

The test system of data set [1] is MC38 cells. Description: Apoptosis flow cytometry assay (FITC Annexin V/PI). In kind it is cell-based, murine. The following applies: for apoptosis induction in MC38 cells: agent alone: Venetoclax 3 μM, Doxorubicin 1 μM, Docetaxel 10 μM, Simvastatin 10 μM. How it is done:
Cell lines and drugs: MC38 and B16 cell lines were derived from C57BL6 murine colon adenocarcinoma and melanoma cells, respectively. The cells were maintained in Dulbecco's modified Eagle's medium (DMEM) supplemented with 10% heat-inactivated fetal bovine serum (FBS) and 100 U/mL penicillin/streptomycin. The CT26 cells were derived from murine colon adenocarcinoma cells and cultured in RPMI1640 with 10% FBS and 2 mM GlutaMAX.
Apoptosis flow cytometry assay: FITC Annexin V Apoptosis Detection Kit with PI (BioLegend) was used for apoptosis detection. The MC38 cells were seeded in 24-well plate with 1×10^5 cells/well and cultured overnight. […] After 24 hours treatment, cells were collected and dissociated as single cell suspensions for Annexin V/PI staining. In briefing, cells were washed twice with cold BioLegend's Cell Staining Buffer, then resuspended in […] Annexin V Binding Buffer. […] FITC Annex V and […] Propidium Iodide (PI) Solution were added in each sample. The samples were gently vortexed and incubated for 15 minutes at room temperature in the dark. Wash the samples with Cell Staining Buffer one time and resuspend cells in […] Cell Staining Buffer for flow cytometry analysis. The data were recorded on BD Accuri™ C6 plus flow Cytometer and analyzed with FlowJo software.

Data set [2] relates to IFNβ. Description: Interferon-beta (IFNβ) ELISA assay of MC38 cell culture supernatants. The settings on record: 24 hours. In kind it is cell-based, murine. How it is done:
The concentration of IFNβ was measured with VeriKine-HS Interferon Beta Serum ELISA Kit (PBL Assay Science) in accordance with the manufacturer's instruction. The data of absorbance was recorded at 450 nm by using BioTek synergy 4 plate reader and analyzed with GraphPad software.

The target in data set [3] is T1, caspase-3 (Mus musculus, UniProt P70677).
T1 construct: the cells were lysed in 25 μL 1× lysis buffer on ice for 20 min; endogenous in cells; host or cells: MC38 cells (lysate)
T1 sequence (P70677 29-175 limits assumed): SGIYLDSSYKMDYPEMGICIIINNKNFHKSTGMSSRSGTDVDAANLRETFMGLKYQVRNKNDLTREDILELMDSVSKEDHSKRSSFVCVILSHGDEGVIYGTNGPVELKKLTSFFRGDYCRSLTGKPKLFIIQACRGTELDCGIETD
T1 sequence (P70677 176-277 limits assumed): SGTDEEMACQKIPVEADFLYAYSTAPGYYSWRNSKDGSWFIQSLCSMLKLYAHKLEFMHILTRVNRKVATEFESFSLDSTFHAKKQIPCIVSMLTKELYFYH
Description: Caspase-3 activity assay in MC38 cells. In kind it is cell-based, murine. How it is done:
Caspase-3 activity assay: Caspase-3 activity was measured by using Sigma Caspase 3 Assay Kit, Fluorimetric. In brief, MC38 cells were cultured in 96-well plates and treated with Docetaxel and Docetaxel/Emricasan combination, respectively. Dose-dependent effect of Docetaxel on caspase-3 activity was tested in MC38 cells; Docetaxel/Emricasan combination treatment was applied to reverse Docetaxel induced caspase-3 activity. After 24 h drug treatment, the cells were lysed in 25 μL 1× lysis buffer on ice for 20 min, then added 200 μL of 16.7 μM Ac-DEVD-AMC substrate solution to incubate at RT in the dark for 30 min. The fluorescent signals were read in BioTek Synergy 4 plate reader at excitation 360 nm and emission 460 nm.

Data set [4] has as its system MC38 cells. Description: Tumor cell killing / cytotoxicity, MC38 (FIG. 11a). In kind it is cell-based, murine.
Data set [5] concerns A549. Description: Tumor cell killing / cytotoxicity, A549 (FIG. 11b). The format is cell-based. The settings on record: with 10 μM of emricasan.
The subject of data set [6] is MiaPaca-2. Description: Tumor cell killing / cytotoxicity, MiaPaca-2 (FIG. 11c). The format is cell-based. The settings on record: with 10 μM of emricasan.
Data set [7] relates to PD-L1. Description: PD-L1 expression flow cytometry assay. In kind it is cell-based, murine. The settings on record: MC38 cells; 1 μM Docetaxel, 10 μM Emricasan, or the combination; 24 h; FIG. 21. How it is done:
PD-L1 expression flow cytometry assay: Cell surface PD-L1 expression was detected by flow cytometry assay. The cells were plated in 24-well plates and treated with 1 μM Docetaxel, 10 μM Emricasan, and the combination of the two drugs. Untreated cells were used as a control. After 24 h of treatment, the cells were dissociated and harvested for PD-L1 staining with BioLegend PE anti-mouse PD-L1 antibody (MIH7 clone). The PD-L1 expression was measured in BD Accuri C6 Plus flow cytometer, The mean density of PD-L1 was analyzed by FlowJo V10 software.
Background: In flow cytometry, cells or beads pass a laser one at a time.

In data set [8] the test system is MC38 model. Description: In vivo tumor growth study, MC38 model. Details: species or system mice. The protocol: (§1) In vivo studies: Female C57BL6 and Balb/C mice of 9 weeks of age were obtained from the Jackson lab, ME. Passages were made twice weekly with a 1:2 split and cultured in DMEM:F12 supplemented with 10% FBS (HyClone, Ft. Collins, Colo.). For inoculation, approximately 5-8×10^5 cells were suspended in 100 μL of PBS (Becton Dickinson Labware, Bedford, Mass.) and injected subcutaneously into the flanks of mice. Most mice developed palpable tumors within 5 days of inoculation. Tumor bearing mice are grouped in cohorts of 5-8 mice for dosing studies. Mice with tumor sizes of 50-100 mm^3 are randomized between treatment groups. Baseline tumor volumes were established and dosing initiation began on day 0. Emricasan was administered as a salt intratumorally or interperitoneally for 3-4 days. If docetaxel was used, it was administered interperitoneally or intravenously in Tween80/PEG300 or Tween80/ethanol with PBS the day before emricasan was given. Emricasan and docetaxel were co-formulated in Tween80/PEG300 and co-administered intratumorally after diluting with PBS. Tumor volumes were measured twice a week using standard calipers and calculated as […], with the length and width defined as the long and short axes, respectively. Measurement of body weight was initiated on day 0 and repeated once a week.

Data set [9] addresses T2, caspase-3 (Homo sapiens, UniProt P42574).
T2 sequence (P42574 29-175 limits assumed): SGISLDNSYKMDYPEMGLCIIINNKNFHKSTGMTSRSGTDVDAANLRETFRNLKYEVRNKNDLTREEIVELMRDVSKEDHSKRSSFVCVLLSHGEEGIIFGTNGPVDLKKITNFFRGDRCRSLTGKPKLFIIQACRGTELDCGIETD
T2 sequence (P42574 176-277 limits assumed): T1 sequence (P70677 176-277 limits assumed) with T3V, E5D, E6D, Q10H, S46A, L50Q, H53D, L77F, S79A
Description: Caspase activity in A549 tumor cells (FIG. 10b). In kind it is cell-based. Details: endogenous in cells; host or cells: A549 cells.

Data set [10] has as its target T2, caspase-3. Description: Caspase activity in MiaPaca-2 tumor cells (FIG. 10c). Also noted: endogenous in cells; host or cells: MiaPaca-2 cells. The format is cell-based.
In data set [11] the test system is B16 model. Description: In vivo tumor growth study, B16 model. Details: species or system mice. The following applies: emricasan amine salt intratumorally 5 mpk and 10 mpk q.d 4 days, FIG. 19. How it is done: as §1, with “Mice with tumor sizes of 50-100 mm^3 are randomized between treatment groups.” left out
Data set [12] relates to CT26 model. Description: In vivo tumor growth study, CT26 model. Details: species or system mice. The settings on record: emricasan amine salt intratumorally 5 mpk and 10 mpk q.d 4 days, FIG. 20. The protocol: as §1, with “Mice with tumor sizes of 50-100 mm^3 are randomized between treatment groups.” left out
The mark [13] stands for this setting: agent alone: simvastatin 10 μM, venetoclax 3 μM, doxorubicin 1 μM, docetaxel 10 μM.

Substitutions are numbered along the chain they refer to. Entries after “also recorded” stand apart in the source; their conditions may differ.

For `CC(=O)O[C@@]12CO[C@@H]1C[C@H](O)[C@@]1(C)C(=O)[C@H](O)C3=C(C)[C@@H](OC(=O)[C@H](O)[C@@H](NC(=O)OC(C)(C)C)c4ccccc4)C[C@@](O)([C@@H](OC(=O)c4ccccc4)[C@H]21)C3(C)C` [docetaxel], the “apoptosis induction in MC38 cells” value in data set [1] (24 hours) is reported as “induced substantial apoptosis”. In addition, the “IFNβ production in MC38 cells” value in [2] (setting [13]) is “slightly reduced IFNβ production”. The “docetaxel concentration activating caspase most efficiently” value in data set [3] (MC38 cells, 24 h, FIG. 10a) is about 1 µM; in data set [9] (A549), about 1 µM; in data set [10] (MiaPaca-2), about 1 µM. Besides, the “docetaxel concentration killing tumor cells more efficiently” value in data set [4] (MC38, with 10 μM of emricasan, FIG. 11a) is about 1 µM; in [5], about 1 µM; in data set [6] it was about 1 µM. Further, the “cytotoxicity in several tumor cells” value in data set [4] (several tumor cells (FIG. 11a-c: MC38, A549, MiaPaca-2)) was “showed cytotoxicity”. The “PD-L1 expression on tumor cells” value in data set [7] is reported as “upregulating PD-L1 expression”. The “tumor control, systemic docetaxel added to intratumoral emricasan” value in data set [8] (docetaxel 30 mpk single dose intraperitoneal (FIG. 14) or intravenous (FIG. 15), emricasan intratumoral 10 mpk q.d 3-4 days after docetaxel) is listed as “improved tumor control of emricasan”.
With `COc1cccc2c1C(=O)c1c(O)c3c(c(O)c1C2=O)C[C@@](O)(C(=O)CO)C[C@@H]3O[C@H]1C[C@H](N)[C@H](O)[C@H](C)O1` [doxorubicin], the “apoptosis induction in MC38 cells” value in data set [1] (24 hours) was “induced substantial apoptosis”. Also, in data set [2] (setting [13]), the “IFNβ production in MC38 cells” value was “slightly reduced IFNβ production”.
Regarding `C[C@H](NC(=O)C(=O)Nc1ccccc1C(C)(C)C)C(=O)N[C@@H](CC(=O)O)C(=O)COc1c(F)c(F)cc(F)c1F` [emricasan, (S)-3-((S)-2-(2-((2-(tert-butyl)phenyl)amino)-2-oxoacetamido)propanamido)-4-oxo-5-(2,3,5,6-tetrafluorophenoxy)pentanoic acid], the “apoptosis induced by docetaxel” value in data set [1] (addition of 10 μM emricasan to Docetaxel 10 μM, 24 hours, FIG. 5) is on record as “significantly reduced the apoptosis”. Besides, in data set [1] (addition of 10 μM emricasan to Doxorubicin 1 μM, 24 hours, FIG. 4), the “apoptosis induced by doxorubicin” value is “significantly reduced the apoptosis”. Moreover, the “apoptosis induced by simvastatin” value in data set [1] (addition of 10 μM emricasan to Simvastatin 10 μM, 24 hours, FIG. 2) is listed as “significantly reduced the apoptosis”. Moreover, the “apoptosis induced by venetoclax” value in [1] (addition of 10 μM emricasan to Venetoclax 3 μM, 24 hours, FIG. 3) is recorded as “significantly reduced the apoptosis”. The “apoptosis in MC38 cells” value in [1] (emricasan alone, 24 hours treatment, FIG. 1) is given as “partially blocked the apoptosis”. The “IFNβ production in docetaxel treated MC38 cells” value in [2] (addition of 10 μM emricasan to docetaxel 10 μM, FIG. 9) is given as “significantly enhanced the IFNβ production”. In addition, in data set [2] (addition of 10 μM emricasan to doxorubicin 1 μM, FIG. 8), the “IFNβ production in doxorubicin treated MC38 cells” value is reported as “significantly enhanced the IFNβ production”. In addition, in data set [2] (addition of 10 μM emricasan to simvastatin 10 μM, FIG. 7), the “IFNβ production in simvastatin treated MC38 cells” value is recorded as “significantly enhanced the IFNβ production”. The “IFNβ production in MC38 cells” value in [2] (emricasan alone, FIG. 6) was “slightly enhanced the IFNβ production”. Moreover, the “inhibition of caspase activity in tumor cells” value was “fully inhibiting the caspase activity” in data set [3] (10 μM of emricasan, docetaxel-treated MC38 cells, FIG. 10a); “fully inhibiting the caspase activity” in [9] (10 μM of emricasan, docetaxel-treated A549); “fully inhibiting the caspase activity” in data set [10] (10 μM of emricasan, docetaxel-treated MiaPaca-2). Besides, in [3] (tumor cells, FIG. 10a-c), the “concentration at which emricasan began to effectively inhibit the caspase-3 activity” value was about 1 µM. In data set [3] (tumor cells, FIG. 10a-c), the “concentration at which emricasan reached the maximum activity (caspase-3 inhibition)” value was about 10 µM. Also, the “PD-L1 expression on tumor cells” value in [7] is “upregulated the PD-L1 expression”. In addition, in [8] (cured mice from the FIG. 15 study, rechallenged, FIG. 16), the “rejection of rechallenged tumor in cured mice” value is reported as “able to reject rechallenged tumor; also recorded: able to reject rechallenged tumors more efficiently”. For the same compound, in [8] (docetaxel intravenous 50 mpk single dose, emricasan intraperitoneal 20 mpk b.i.d 3 days after docetaxel, FIG. 18), the “systemic tumor control, systemic emricasan added to intravenous docetaxel” value is recorded as “improved the systemic tumor control of intravenously administered docetaxel”. Besides, the distal tumor control result in data set [8] (emricasan alone intratumorally 10 mpk q.d 4 days, FIG. 13) is listed as “moderate”. In addition, the “tumor control at the site of injection” value in data set [8] (emricasan alone intratumorally 10 mpk q.d 4 days, small MC38 tumors (~50 mm^3), FIG. 12) is “able control small MC38 tumors”. The “number of cured mice” value in [8] (study of FIG. 15: docetaxel intravenous 30 mpk single dose, emricasan intratumoral 10 mpk q.d 4 days) is on record as 5 mice. For the same compound, the tumor control efficacy entry in data set [11] and in [12] was “produced tumor control efficacy” each time.
